Results on three substances are retold here after patent US9725474B2, “Modified nucleic acid” (TAKEDA PHARMACEUTICAL COMPANY LIMITED, priority 2012, dated 2017).

The series deals with GL3 luciferase gene. Nature of the series: Evaluation of each siRNA using Dual-Luc reporter system (expression-suppressive activity). The series is classed as cell-based, Human. The conditions noted are these: for suppressive activity against luciferase expression compared with control RNA: Dual-Luc reporter system, HCT116 cells, comparison drawn from Table 1; for IC50: HCT116 cells transfected with vector OFF#085 or OFF#086, siRNA reverse transfection with Lipofectamine RNAiMAX, two-night culture, luciferase activity (Renilla/firefly), Dual-Glo, read-out: 50% inhibition concentration. Here is the method:
Each siRNA was evaluated using a Dual-Luc reporter system as described below.
A restriction enzyme sequence was added to a sequence containing a 19-base sequence complementary to the antisense strand of siRNA against the GL3 luciferase gene (Elbashir S M et al., Nature, Vol. 411, 24 May 2001, 494-498), and its 5′-flanking 10 bases and 3′-flanking 10 bases. The resulting sequence was incorporated into the XhoI/NotI site of a psiCHECK2 plasmld (Promega KK) either in a forward direction (sequence A) or in a reverse direction (sequence B) to construct vectors for the expression of firefly Iuciferase and Renilla luciferase, OFF#085 and OFF#086, respectively.
Human colon cancer cell line HCT116 cells (ATCC) were inoculated at a density of 3×10^6 cells/10 ml/75 cm^2 flask. After overnight culture at 37° C. in 5% CO2, the cells were transfected with the vector OFF#085 or OFF#086 obtained in the preceding paragraph 1) using FuGENE 6 (F. Hoffmann-La Roche Ltd.) and further cultured overnight. Each siRNA synthesized in Example 5 and Comparative Example was diluted with PBS into two serial dilutions of 3.3 nM (final) and 0.0043 nM or 12 serial dilutions from 10 nM to 56 fM and used in reverse transfection of 1.6×10^4 cells/100 μL/well using Lipofectamine RNAiMAX reagent (Invitrogen Corp.). After two-night culture, firefly luciferase activity and Renilla luciferase activity were measured using Dual-Glo Luc Assay kit (Promega KK) according to the attached document. When the luciferase activity (Renilla/firefly) of cells reverse-transfected with 10 nM BLOCK-iT™ Alexa Fluor® Red Fluorescent Oligo (Invitrogen Corp.) was defined as 100%, the luciferase activity of the cells transfected with each siRNA was calculated. The IC50 value was calculated using GraphPad Prism 5.

Several values for one entry are separate records, joined by “and”; a condition that tells them apart may be missing. Equal entries are not always repeated.

Regarding “siRNA (2): siRNA of sense strand SEQ ID NO: 1 and antisense strand SEQ ID NO: 3 containing one formula (II) partial structure U(K2) induced from compound 22 (sense CUUACGCUGAGUACUUCGATT; antisense UCGAAGUACUCAGCGUAAGTT; chemistry not fully specified)”, the “suppressive activity against luciferase expression compared with control RNA” value is reported as “higher suppressive activity” and the IC50 was determined as 0.009 nM.
In the case of “Control RNA: Control siRNA of sense strand SEQ ID NO: 4 and antisense strand SEQ ID NO: 5, free from compound 11 or 22 (sense CUUACGCUGAGUACUUCGATT; antisense UCGAAGUACUCAGCGUAAGTT; chemistry not fully specified) [reference compound]”, the IC50 was 0.024 nM and 0.012 nM.
As for “siRNA (1): siRNA of sense strand SEQ ID NO: 1 and antisense strand SEQ ID NO: 2 containing one formula (II) partial structure U(K) induced from compound 11 (sense CUUACGCUGAGUACUUCGATT; antisense UCGAAGUACUCAGCGUAAGTT; chemistry not fully specified)”, the “suppressive activity against luciferase expression compared with control RNA” value was “higher suppressive activity” and the IC50 was determined as 0.007 nM.
